# In article PMC5131496, “In vitro and in vivo anti-malarial activity of novel harmine-analog heat shock protein 90 inhibitors: a possible partner for artemisinin” (Malaria Journal, 2016):
# Biological target: T1, P. falciparum heat shock protein 90 (PfHsp90) (Plasmodium falciparum, UniProt Q8IC05)
# T1 construct: gene PF3D7_0708400
# Assay: bis-ANS fluorescence competitive binding assay with purified recombinant GHKL domain
# T1 sequence (Q8IC05 1-211 limits assumed): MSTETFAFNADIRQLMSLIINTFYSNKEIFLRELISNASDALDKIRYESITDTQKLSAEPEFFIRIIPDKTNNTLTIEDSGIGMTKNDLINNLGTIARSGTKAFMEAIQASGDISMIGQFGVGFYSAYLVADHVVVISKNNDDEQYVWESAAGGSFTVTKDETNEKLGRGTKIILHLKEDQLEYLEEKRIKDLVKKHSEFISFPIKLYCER
structure (smiles),measurement,value
CC1NCCc2c1[nH]c1ccc(Cl)cc21 (centres unmarked) [17A],IC50,12.2 ± 2.3 µM
CC1NCCc2c1[nH]c1ccc(Br)cc21 (centres unmarked) [21A],IC50,23.1 ± 8.8 µM
